Experimental data published in patent US20200038412A1, “METHODS OF TREATING ALZHEIMER'S DISEASE USING AMINOSTEROL COMPOSITIONS” (Enterin, Inc., priority 2018, published 2020).
“Also recorded” adds a separate entry of the source.

Tests used:
[1] = tested on: patients with PD and constipation; assay: Circadian rhythm of wrist skin temperature; type: in vivo, human; conditions: for circadian rhythm of skin temperature / markers of healthy circadian function: oral, 12 evaluable patients
Description: Assessments were made at baseline and at the end of the fixed dose and washout periods. Circadian system status was evaluated by continuously monitoring wrist skin temperature (Thermochron iButton DS1921H; Maxim, Dallas) following published procedures (Sarabia et al. 2008).
Circadian rhythm of skin temperature was evaluable in 12 patients (i.e., those who had recordings that extended from baseline through washout). Circadian system functionality was evaluated by continuously monitoring wrist skin temperature using a temperature sensor (Thermochron iButton DS1921H; Maxim, Dallas, Tex.) (Sarabia et al. 2008). A nonparametric analysis was performed for each participant to characterize DST as previously described (Sarabia et al. 2008; Ortiz-Tudela et al. 2010).
Briefly, this analysis includes the following parameters: (i) the inter-daily stability (the constancy of 24-hour rhythmic pattern over days, IS); (ii) intra-daily variability (rhythm fragmentation, IV); (iii) average of 10-minute intervals for the 10 hours with the minimum temperature (L10); (iv) average of 10-minute intervals for the 5 hours with the maximum temperature (M5) and the relative amplitude (RA), which was determined by the difference between M5 and L10, divided by the sum of both. Finally, the Circadian Function Index (CFI) was calculated by integrating IS, IV, and RA. Consequently, CFI is a global measure that oscillates between 0 for the absence of circadian rhythmicity and 1 for a robust circadian rhythm (Ortiz-Tudela et al. 2010).

[2] = target: αS (Homo sapiens, UniProt P37840); conditions: in vitro (Perni et al. 2017); cited from earlier work
[3] = Preclinical oral dosing in rats; type: in vivo

In the case of `CC(C)[C@@H](CC[C@@H](C)[C@H]1CC[C@H]2[C@@H]3[C@H](O)C[C@H]4C[C@@H](NCCCNCCCCN)CC[C@]4(C)[C@H]3CC[C@]12C)OS(=O)(=O)O` (single isomer, unassigned) [squalamine (ENT-01), squalamine], the “relative amplitude (RA)” value ([1]; fixed dose vs baseline, p=0.001) is reported as “increasing”, the “circadian function index (CFI)” value ([1]; fixed dose vs baseline, p=0.016) is reported as “increasing” and the “rhythm stability (inter-daily stability, IS)” value ([1]; fixed dose vs baseline, p=0.026) is reported as “increasing”. For the same compound, the “rhythm fragmentation (intra-daily variability, IV)” value ([1]; fixed dose vs baseline, p=0.031) was “reducing”, the “circadian rhythm of skin temperature / markers of healthy circadian function” value ([1]; fixed dose vs baseline) was “significant positive impact on the circadian rhythm of skin temperature; also recorded: improved all markers of healthy circadian function” and the “circadian rhythm of skin temperature / markers of healthy circadian function” value ([1]; fixed dose vs baseline, listed as aminosterol) was “improved all markers of healthy circadian function”. The “circadian parameters during wash-out period” value ([1]; wash-out vs baseline (IS, CFI), 12 patients) was “improvement persisted for several of these circadian parameters”, the “formation of aggregates of αS” value [2] was “inhibit the formation of aggregates of αS” and the “absorption from the intestine” value ([3]; rat, portal blood concentrations following oral dosing of radioactive ENT-01) was “low”. The bioavailability ([3]; rats) was “limited bioavailability” and the tolerability ([3]; rats) was “well tolerated”.
